In patent US8980259B2, “Combination therapy” (Novartis AG, priority 2012, dated 2015):

What was measured:
[1] = system: MCF7 human breast carcinoma cells; test: Cell viability / proliferation assay (CELLTITER-GLO, dose matrix) in MCF7 cells; type: cell-based
Description: FIG. 1 is a series of graphs showing the effect of the combination of COMPOUND A with ANTIBODY A on MCF7 cell proliferation under the presence of IGF-1 (100 ng/ml). Briefly, MCF7 cells were treated in 384-well format for 5 days with COMPOUND A and ANTIBODY A in the presence of 100 ng/ml of IGF1 in SD medium. […] Each data point represents averaged data from 3 wells+standard deviation, and the color spectrum also represents the level of the inhibition. A red rectangle highlights the region where the combination is more efficacious than the single agents the same dose.
COMPOUND A (10 mM), stored in aliquots at −20° C. ANTIBODY A (0.2 mM in 1% BSA), stored in aliquots at 4° C. […]
Cell viability was determined by measuring cellular ATP content using the CELLTITER-GLO (CTG) luminescent cell viability assay (Promega). […] An equal volume of the CTG reagents was added to each well at the end of the compound treatment and luminescence was recorded on an ENVISION plate reader (Perkin Elmer). Reduced and enhanched luminescent signal values (responses) were calculated relative to untreated (control) cells. […]
The synergistic interaction (analyzed using Chalice software [CombinatoRx, Cambridge Mass.]) was calculated by comparing the response from a combination to the response of the agent acting alone, against the drug-with-itself dose-additive reference model. […]

MCF7 xenograft = MCF7 xenograft in mice, tumor volume; type: in vivo
Description: MCF-7 cells (purchased from American Type Culture Collection (ATCC)) were tested free of mycoplasma and viral contamination in the IMPACT VIII PCR assay panel (RADIL, MU Research Animal Diagnostic Laboratory, Columbia, Mo.). MCF-7 cells were cultured in EMEM medium (ATCC#30-2003) containing 10% heat-inactivated fetal bovine serum. Mice were implanted with 17b-estradiol pellets, 0.18 mg/pellet, 90-day release (Innovative research of America Catalog #NE-121), between the shoulder blades three days before the cell implant.
Treatment started on day 21 and concluded by day 59. Tumor volume of each group was measured. The effect of COMPOUND A and ANTIBODY A, as monotherapy and combination, was assessed by comparing: • (a) the percent change between Day 1 and endpoint day in the mean tumor volume of the treated group (T) and the control group (C) (herein referred to as “T/C”), and • (b) the percent change between Day 1 and the endpoint day in the mean tumor volume of the treated group compared to its initial volume (herein referred to as “T/T0”).

## Cc1nc(NC(=O)N2CCC[C@H]2C(N)=O)sc1-c1ccnc(C(C)(C)C(F)(F)F)c1 [COMPOUND A, (S)-Pyrrolidine-1,2-dicarboxylic acid 2-amide 1-({4-methyl-5-[2-(2,2,2-trifluoro-1,1-dimethyl-ethyl)-pyridin-4-yl]-thiazol-2-yl}-amide)]
[1]; MCF7, Experiment 1 summary
  MCF7 growth inhibition in vitro (summary in words): concentration-dependent tumor growth inhibition
[1]; MCF7, single agent, either in the presence or absence of IGF1
  anti-proliferative activity (in words): concentration dependent anti-proliferative activity
MCF7 xenograft; MCF7 xenograft in mice, Experiment 2 summary
  tumor outcome in MCF7 xenograft (summary in words): tumor stasis
MCF7 xenograft; MCF7 xenograft mice, COMPOUND A 30 mg/kg qd po, ANTIBODY A 12 mg/kg q2w ip, treatment day 21 to day 59
  T/C (percent change in mean tumor volume, treated vs control group): 10%
